This test deals with T1, β-glucosidase.
T1 construct: gene EC 3.2.1.21; native extracellular enzyme, partially purified from culture (ammonium sulfate, dialysis, Sephadex gel filtration); approx. 50 kDa by SDS-PAGE
Kind of test: p-nitrophenol release, absorbance at […] nm; plot of activity against substrate concentration. It counts as biochemical, Proteus mirabilis. Particulars: partially purified enzyme; substrate of the standard assay (pNPG); pH and temperature of the kinetic run not given.

As a reminder, the Km is the concentration of substrate that gives half-maximal velocity. Consider `O=[N+]([O-])c1ccc(O[C@@H]2O[C@H](CO)[C@@H](O)[C@H](O)[C@H]2O)cc1` [pNPG, p-Nitrophenyl-β-D-glucopyranoside], for which the Michaelis-Menten constant (Km) turned out to be 82 µM.

The values above are taken from paper PMC5047857, “Screening, production, optimization and characterization of β-glucosidase using microbes from shellfish waste” (3 Biotech, 2016).
